Consider four compounds from patent publication US10149470B2, “Methods and compositions for vein harvest and autografting” (Vanderbilt University, priority 2009, dated 2018).

What all share (type): cell-based
Data set [1] has as its system human saphenous vein. As to conditions: 15 min, pH 7.4. Here is the method: De-identified discarded segments of human saphenous vein were collected (n=66), after informed consent approved by the Institutional Review Board of the Vanderbilt University (Nashville, Tenn.), from patients undergoing coronary artery bypass or peripheral vascular bypass surgery. The veins were stored in a saline solution until the end of the surgical procedure at which time they were placed in cold transplant harvest buffer (100 mM potassium lactobionate, 25 mM KH2PO4, 5 mM MgSO4, 30 mM raffinose, 5 mM adenosine, 3 mM glutathione, 1 mM allopurinol, 50 g/L hydroxyethyl starch, pH 7.4) and stored at 4° C. The vessels were tested within 24 hours of harvest. The presense of blue markings were assessed for each HSV. Rings 1.0 mm in width were cut from segments of saphenous vein dissected free of fat and connective tissue, stripped of the endothelium and were suspended in a muscle bath containing a bicarbonate buffer (120 mM NaCl, 4.7 mM KCl, 1.0 mM MgSO4, 1.0 mM NaH2PO4, 10 mM glucose, 1.5 mM CaCl2, and 25 mM […], pH 7.4), gassed with 95% O2/5% CO2 at 37° C. The rings were manually stretched to 4 g of tension, and was maintained at a resting tension of 1 g was obtained and equilibrated for ˜2 hr. […] To determine viability, the rings were contracted with 110 mM KCl (with equimolar replacement of NaCl in bicarbonate buffer), and the force generated was measured. […]

Another data set concerns porcine saphenous veins. As to conditions: pig, 15 min, 50 %. The protocol:
Freshly isolated porcine saphenous veins were used to test the effect of different marking methods. The veins were collected and placed in cold transplant harvest buffer [100 mM potassium lactobionate, 25 mM KH2PO4, 5 mM MgSO4, 30 mM raffinose, 5 mM adenosine, 3 mM glutathione, 1 mM allopurinol, 50 g/L hydroxyethyl starch, pH 7.4]. The vessels were stored in transplant harvest buffer at 4° C. and tested within 24 hours of harvest and. To test the viability, rings 1.0 mm in width were cut from segments of saphenous vein and dissected free of fat and connective tissue. Saphenous vein rings were untreated (Control; n=6), marked with the surgical skin marker (n=3), or 50% isopropyl alcohol (the solvent used in the surgical marker; n=3) and incubated for 15 min at room temperature. The rings were then equilibrated in a muscle bath, contracted with KCl, and force was measured and converted to stress (10^5 N/m^2). […] (FIG. 7).

The test system of data set [2] is porcine saphenous vein. Briefly: KCl-induced contraction of porcine saphenous vein after stretch injury, with or without dye. As to conditions: 50 μM dye for 30 min on rings from stretched segments; FIG. 10. Here is the method:
Freshly isolated porcine saphenous vein was collected in cold transplant harvest buffer (100 mM potassium lactobionate, 25 mM KH2PO4, 5 mM MgSO4, 30 mM raffinose, 5 mM adenosine, 3 mM glutathione, 1 mM allopurinol, 50 g/L hydroxyethyl starch, pH 7.4). The vessels were tested within 24 hours of harvest and storage in transplant harvest buffer at 4° C. The vein was dissected free of fat and connective tissue and cut into 2 cm long segments. The segments were stretched to twice their resting length (stretched; n=7) or not manipulated (control; n=12). After stretching, the segments from both groups were further divided. A solution of erioglaucine (FCF, 2.6 mM, in 5% propylene glycol and water) or vehicle was then applied with a cotton swab in a longitudinal line to the untreated (FCF; n=8) or the stretched (Stretched+FCF; n=3) vein segments. The segments were incubated at room temperature for 15 min in Plasmalyte and then cut into rings. The rings were suspended in a muscle bath containing a bicarbonate buffer (120 mM NaCl, 4.7 mM KCl, 1.0 mM MgSO4, 1.0 mM NaH2PO4, 10 mM glucose, 1.5 mM CaCl2, and 25 mM […], pH 7.4), bubbled with 95% O2/5% CO2 at 37° C. The rings were manually stretched to 4 g of tension, and maintained at a resting tension of 1 g and equilibrated for ˜2 hr.
Rings from stretched segments were either incubated with 50 μM Allura Red (+Red) or 50 μM of erioglaucine (+FCF) for 30 min. The rings were then allowed to equilibrate in the bicarbonate buffer for before contracting with 110 mM KCl. Force generated was converted to stress (10^5 N/m^2). Data represent relative contractile response to Control rings which was set as 100%.

Data set [3] deals with porcine saphenous vein. Kind of data set: Intimal thickening of distended porcine saphenous vein rings in 14 day organ culture. As to conditions: 50 μM dye, 14 days culture, distended to >300 mm Hg, compared to Distended-Control; FIG. 14. Here is the method: Fresh porcine saphenous vein was harvested by a no touch method under sterile conditions and stored in cold transplant harvest buffer (100 mM potassium lactobionate, 25 mM KH2PO4, 5 mM MgSO4, 30 mM Raffinose, 5 mM Adenosine, 3 mM Glutathione, 1 mM Allopurinol, 50 g/L Hydroxyethyl starch, pH 7.4). The vessels were used within 24 hr of harvest. The veins were divided into three segments that were left untreated (Unmanipulated, n=7), distended (Distended, n=8) to >300 mm Hg, or distended in the presence of the pressure relief valve (Pop Off, n=7). Each segment was then cut into ˜1 mm rings and one ring from each condition was immediately fixed in formalin (Pre-culture). The other rings were cultured in RPMI medium supplemented with 1% L-glutamine, penicillin/streptomycin and 30% Fetal bovine serum at 5% CO2 and 37° C. in the absence (Control) or presence of either 50 μM erioglaucine (FCF), 50 μM brilliant blue G (BBG) or 50 μM Allura Red (Red) for 14 days. After 14 days, the rings were fixed in formalin, sectioned at 5 μm and stained using Verhoff Van Gieson stain. Light micrograph of the rings was captured using a Axiovert 200 and intimal thickness was measured using AxioVision.

A further data set concerns porcine coronary artery. Kind of data set: Papaverine effect on tension and on histamine/KCl contraction of porcine coronary artery rings. The protocol: Porcine coronary arteries were freshly isolated from euthanized pigs and placed directly into cold transplant harvest buffer (100 mM potassium lactobionate, 25 mM KH2PO4, 5 mM MgSO4, 30 mM Raffinose, 5 mM Adenosine, 3 mM Glutathione, 1 mM Allopurinol, 50 g/L Hydroxyethyl starch, pH 7.4). Coronary arteries were dissected free of fat and adventitial tissues and the endothelium was removed. Transverse rings (1.0 mm thickness) were cut and suspended in muscle bath, via silk 3-0 linked to force transducers (Kent Scientific, CT) interfaced with a Data Translation A-D board (Data Translation, MA). Data was acquired with the Power Lab software program. Porcine coronary artery rings were suspended in a muscle bath and equilibrated in Krebs Ringer bicarbonate buffer for 2 h. The rings were stretched and the length progressively adjusted until maximal tension was obtained. The rings were contracted with 110 mM KCl (with equimolar replacement of NaCl in bicarbonate buffer), and the force generated was measured and converted to stress [Newtons (N)/m^2]=force (g)×0.0987/area, where area is equal to the wet weight [mg/length (mm at maximal length)] divided by 1.055. Rings were washed and equilibrated for another 30 mins. Rings were treated with 5 μM histamine, 110 mM KCl, 1 mM papaverine (PAP), 1 mM papaverine for 10 min followed by 5 μM histamine or 1 mM papaverine for 10 min followed by 110 mM KCl and force generated was measured- and converted to stress. Representative force tracings of rings treated with 5 μM histamine (Hist), 110 mM KCl (KCl), 1 mM papaverine (PAP), 1 mM papaverine for 10 min followed by 5 μM histamine (Pap+Hist) or 1 mM papaverine for 10 min followed by 110 mM KCl (Pap+KCl) were depicted in FIG. 18A. Decrease in stress was converted to a percentage of the maximal initial KCl contraction which was set as 100%.

The test system of data set [4] is human saphenous vein. Kind of data set: Papaverine effect on tension and on norepinephrine contraction of human saphenous vein rings.
Protocol: De-identified discarded segments of human saphenous vein (n=6) were collected, after informed consent approved by the Institutional Review Board of the Vanderbilt University (Nashville, Tenn.), from patients undergoing coronary artery bypass or peripheral vascular bypass surgery. The veins were stored in a saline solution until the end of the surgical procedure at which time they were placed in cold transplant harvest buffer (100 mM potassium lactobionate, 25 mM KH2PO4, 5 mM MgSO4, 30 mM raffinose, 5 mM adenosine, 3 mM glutathione, 1 mM allopurinol, 50 g/L hydroxyethyl starch, pH 7.4). The vessels were tested within 24 hrs of harvest and storage in transplant harvest buffer at 4° C. Veins were cleaned off fat and adventitial tissues and the endothelium was removed. […] The rings were contracted with 110 mM KCl (with equimolar replacement of NaCl in bicarbonate buffer), and the force generated was measured and converted to stress [Newtons (N)/m^2]==force (g)×0.0987/area, where area is equal to the wet weight [mg/length (mm at maximal length)] divided by 1.055. […] Rings were treated with 0.5 μM norepinephrine (NE), 1 mM papaverine (Pap), or 1 mM papaverine for 10 min followed by 0.5 μM NE and force generated was measured and converted to stress. […]

For the compound `CC(C)O` [50% isopropyl alcohol, isopropyl alcohol], in the data set with human saphenous vein [1], the “average stress, contraction with 110 mM KCl” value is recorded as 0.005±0.003 10^5 N/m^2. In the data set on porcine saphenous veins, the average stress, contraction with KCl was 5 ± 5 N/m^2.

Turning to `COc1cc(S(=O)(=O)[O-])c(C)cc1N=Nc1c(O)ccc2cc(S(=O)(=O)[O-])ccc12.[Na+].[Na+]` [Allura Red], the “restoration of functional viability (contractile response to KCl) after stretch injury” value in the data set with porcine saphenous vein [2] is “did not restore functional viability”. The “distension induced increases in intimal thickening” value with porcine saphenous vein [3] was “but not allura red inhibited distension induced increases in intimal thickening”.

As for `CN(C)c1ccc2nc3ccc(=[N+](C)C)cc-3sc2c1` [methylene blue], the “average stress, contraction with 110 mM KCl” value in the data set with human saphenous vein [1] is given as 0.014±0.01 10^5 N/m^2.

As for `COc1ccc(Cc2nccc3cc(OC)c(OC)cc23)cc1OC` [papaverine], the “change of basal tension, percentage of the maximal initial KCl contraction” value in the data set on porcine coronary artery (1 mM papaverine) is recorded as −15.0±3.135%. The “histamine induced contraction after papaverine, percentage of the maximal initial KCl contraction” value in the data set on porcine coronary artery (1 mM papaverine 10 min then 5 μM histamine, histamine alone 98.613±11.049) is given as −12.0±4.163%. For the same compound, in the data set on porcine coronary artery (1 mM papaverine 10 min then 110 mM KCl, KCl alone 103.33±2.404), the “KCl induced contraction after papaverine, percentage of the maximal initial KCl contraction” value is −20.0±10.00%. Besides, the “histamine and KCl induced contractions (in words)” value with porcine coronary artery (preincubation with papaverine, FIGS. 18A-B) is “inhibits histamine and KCl induced contractions”. Besides, the “norepinephrine induced contraction after papaverine, percentage of the maximal initial KCl contraction” value in the data set on human saphenous vein [4] (1 mM papaverine 10 min then 0.5 μM NE, NE alone 89.935±18.344) is −3.210±5.119%. Besides, the “norepinephrine induced contractions (in words)” value in the data set with human saphenous vein [4] (preincubation with papaverine, FIGS. 19A-B) is “inhibits norepinephrine induced contractions”.
